The text below walks through data of patent publication US20080253967A1, “Halo-Stilbene Derivatives And Their Use For Binding And Imaging Of Amyloid Plaques” (priority 2007, published 2008).

Values joined by “and” are separate entries in the source; they are usually repeats but may differ in a detail not shown here. Equal values may be shown once. “Also recorded” adds a separate entry of the source. Read-outs that look alike come from different tables or passages of the source.

The target in data set [1] is T1, amyloid plaques (Homo sapiens, UniProt P05067). Briefly: Inhibition of ^125I-IMPY binding in AD brain homogenates. The settings on record: read-out: Binding Affinity (Ki vs. ^125I-IMPY). As to the method:
Thus, inhibition of ^125I-IMPY binding in human AD brain homogenates was taken as an assay for the potential of test compounds to bind to amyloid plaques.
Postmortem brain tissue was obtained and neuropathological diagnosis was confirmed in accordance with the NIA-Reagan Institute Consensus Group criteria. Homogenates were then prepared from dissected gray matter, pooled in phosphate buffered saline and aliquoted into 1-ml portions (100 mg wet tissue/ml), which could be stored at −70° C. for 3-6 months without loss of binding signal.
For the binding assays brain homogenates were incubated with ^125I-IMPY (0.04-0.06 nM diluted in phosphate buffered saline (PBS)) and test compound (10^−5-10^−10 M diluted in PBS containing 0.1% bovine serum albumin (BSA)). […] The bound and free radioactivity was separated by vacuum filtration followed by 2×3 ml washes of PBS. Filters containing the bound ^125I ligand were assayed in a gamma counter.
For the binding assays brain homogenates were incubated with ^125I-IMPY (0.04-0.06 nM diluted in PBS) and test compound (10^−5-10^−10 M diluted in PBS containing 0.1% BSA). […] The bound and free radioactivity was separated by vacuum filtration followed by 2×3 ml washes of PBS. Filters containing the bound […], ligand were assayed in a gamma counter.

Data set [2] in a line: Organ distribution in normal mice after i.v. injection. Type of data set: in vivo. As to conditions: for Biodistribution Brain (% dose/g in brain) / % total counted / % total recovered / Biodistribution Brain: normal male mice; for Brain penetration and clearance: normal mice. As to the method: While under isoflurane anesthesia, 0.15 ml of a 0.9% saline solution containing ^123I-15 (5-10 μCi) was injected directly into the tail vein of ICR mice (22-25 g, male). The mice (n=3 for each time point) were sacrificed, the organs of interest were removed, weighed, and assayed with an automatic gamma counter. The percentage dose per organ was calculated by a comparison of the tissue counts to suitably diluted aliquots of the injected material. Total activities of blood were calculated under the assumption that they were 7% of the total body weight. The % dose/g of samples was calculated by comparing the sample counts with the count of the diluted initial dose. […] Similar results were obtained in female mice.
While under isoflurane anesthesia, 0.15 ml of a 0.9% saline solution containing ^123I-1b-3 (5-10 μCi) was injected directly into the tail vein of ICR mice (22-25 g, male and female) The mice (n=3 for each time point per sex) were sacrificed, the organs of interest were removed, weighed, and assayed with an automatic gamma counter. The percentage dose per organ was calculated by a comparison of the tissue counts to suitably diluted aliquots of the injected material. Total activities of blood were calculated under the assumption that they were 7% of the total body weight. The % dose/g of samples was calculated by comparing the sample counts with the count of the diluted initial dose.

Data set [3] deals with 46 CNS and Cardiovascular receptor binding sites. Briefly: Binding at CNS and Cardiovascular Receptors (panel of 46 sites). As to conditions: 1 μM; inhibition >50% considered significant. As to the method:
A panel of 46 CNS and Cardiovascular receptor binding sites, including adenosine, adrenergic, benzodiazepine, bombesin, dopamine, GABA, melatonin, muscarinic, neurotensin, nicotininc acetylcholine, opiate, potassium channel, serotonin, sigma, and several transporter subtypes, was tested for binding of Compound 15. […] Inhibition of binding in excess of 50% by Compound 15 was considered potentially significant.

Data set [4] can be described thus: Estimate of human dosimetry extrapolated from mouse data. The settings on record: proposed 5 mCi human dose, extrapolation from mouse data.
The test system of data set [5] is Aβ plaques. Briefly: Film autoradiography of AD brain sections. The format is binding, human. As to conditions: tracer concentrations, post-mortem AD brain sections. As to the method:
Brain sections from a patient with AD were frozen in powdered dry ice and cut into 20 μm thick sections. The sections were incubated with ^123I-15 (200,000-250,000 cpm/200 μl) for 1 hour at room temperature. The sections were then dipped in saturated Li2CO3 in 40% EtOH (2×2 min. washes) and washed with 40% EtOH (1×2 min. wash) followed by rinsing with water for 30s. After drying, the ^123I-labeled sections were exposed to Kodak MR film overnight.
Brains sections from patients with AD were frozen in powdered dry ice and cut into 20 μm thick sections. The sections were incubated with ^123I-1b-3 (200,000-250,000 cpm/200 μl) for 1 hour at room temperature. The sections were then dipped in saturated Li2CO3 in 40% EtOH (2×2 min. washes) and washed with 40% EtOH (1×2 min. wash) followed by rinsing with water for 30 s. After drying, the ^123I-labeled sections were exposed to Kodak MR film overnight.

The nature of data set [6]: Partition coefficient 1-octanol/buffer. As to conditions: 1-octanol / 0.1 M phosphate buffer pH 7.4.
Protocol: (§1) Partition coefficients were measured by mixing ^123I-15 with 3 g each of 1-octanol and buffer (0.1 M phosphate, pH 7.4) in a test tube. The test tube was vortexed for 3 min at room temperature, followed by centrifugation for 5 min. Two weighed samples (0.5 g each) from the 1-octanol and the buffer layer were counted in a well counter. The partition coefficient was determined by calculating the ratio of cpm/g of 1-octanol to that of the buffer. Samples from the 1-octanol layer were repartitioned until consistent partitions of coefficient values were obtained from the third partition. The measurement was done in triplicate and repeated three times.
(§2) The test tube was vortexed for 3 min at room temperature, followed by centrifugation for 5 min. Two weighed samples (0.5 g each) from the 1-octanol and the buffer layer were counted in a well counter. The partition coefficient was determined by calculating the ratio of cpm/g of 1-octanol to that of the buffer. Samples from the 1-octanol layer were repartitioned until consistent partitions of coefficient values were obtained from the third partition. The measurement was done in triplicate and repeated three times.
The target in data set [7] is AD cortical homogenates. As to conditions: cited from earlier work.
Data set [8] in a line: physchem. The settings on record: pH 7.4.
Protocol: as §1, §2
In data set [9] the target is fibrillar Aβ aggregates (Homo sapiens, UniProt P05067). The settings on record: read-out: Inhibition constants (Ki) for binding to fibrillar Aβ aggregates; cited from earlier work.
Chain of fibrillar Aβ aggregates (P05067 672-711 limits assumed): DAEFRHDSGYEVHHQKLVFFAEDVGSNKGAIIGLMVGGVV
Data set [10] addresses T1, amyloid plaques. The settings on record: AD brain homogenates; other amyloid plaque ligands; read-out: Binding Affinity (Ki vs. ^125I-IMPY), published values; cited from earlier work.

T1 sequence (P05067 672-711 limits assumed): as above

`CNc1ccc(/C=C/c2ccc(OCCOCCOCCF)cc2)cc1` [Compound 3, (E)-4-(2-(6-(2-(2-(2-fluoroethoxy)ethoxy)ethoxy)phenyl)-vinyl)-N-methylbenzamine, reference compound]: in data set [1], the Ki stood at 6.7 ± 0.3 nM. Besides, the entries for the “Biodistribution Brain (% dose/g in brain)” value in data set [2] (2 min) and in data set [2] (60 min) were 4.8 ± 0.2 % dose/g and 1.5 ± 0.2 % dose/g, respectively. For the same compound, in data set [3], the “Selectivity (binding to CNS/CV receptors)” value was “No high affinity binding to any CNS receptors”.

For the compound `CNc1ccc(/C=C/c2ccc(OCCOCCOCCF)c([123I])c2)cc1` [^123I-1b-3], in data set [4], the “Estimated exposure of lower large intestine” value is “approximately 4.04 rem”, the “Estimated exposure of upper large intestine” value is listed as roughly 3.55 rem and the “Estimated human effective dose (ED)” value was 1.1 rem. The “Labeling of Aβ plaques in AD brain sections” value in data set [5] is listed as “specifically labeled Aβ plaques; also recorded: colocalize with plaque staining by Congo Red”. Further, in [6], the Partition coefficient stood at 432 and the logP was found to be 2.63. Also, in data set [2] (2 min), the “% total counted / % total recovered” value stood at 82.20 ± 6.38%; the “Biodistribution Brain” value is recorded as 1.01 ± 0.16 % dose/organ; the “Biodistribution Brain (% dose/g in brain)” value is 2.0 % dose/g and 2.05 ± 0.41 % dose/g. For the same compound, in data set [2] (60 min), the “% total counted / % total recovered” value was determined as 83.26 ± 6.99%; the “Biodistribution Brain” value stood at 0.26 ± 0.05 % dose/organ; the “Biodistribution Brain (% dose/g in brain)” value was 0.51 % dose/g and 0.51 ± 0.09 % dose/g. Also, in data set [2] (120 min), the “% total counted / % total recovered” value is given as 83.56 ± 6.29%. The “% total counted / % total recovered” value in [2] (180 min) was found to be 79.15 ± 6.31%. Moreover, the “Brain penetration and clearance” value in data set [2] is “readily penetrates and is rapidly cleared from the brain”.

On to `CNc1ccc(/C=C/c2ccc(O)cc2)cc1` [[^3H]SB-13], for which the Kd in data set [7] is 2.4 ± 0.2 nM.

For `CNc1ccc(/C=C/c2cc([123I])cc(OCCO)c2)cc1` [^123I-15], the “Estimated human effective dose (ED)” value was “approximately 1.1 rem”. Moreover, the “Labeling of Aβ plaques in AD brain sections” value in data set [5] was “specifically labeled Aβ plaques”. In [8], this compound showed a logD of 2.4 and a logP of 2.39. Moreover, in [2] (2 min), the “% total counted / % total recovered” value worked out at 86.65 ± 1.34%; the “Biodistribution Brain” value was 1.49 ± 0.12 % dose/organ; the “Biodistribution Brain (% dose/g in brain)” value is 3.4 % dose/g and 3.40 ± 0.31 % dose/g. For the same compound, in data set [2] (60 min), the “% total counted / % total recovered” value amounted to 87.53 ± 4.57%; the “Biodistribution Brain” value came out at 0.21 ± 0.01 % dose/organ; the “Biodistribution Brain (% dose/g in brain)” value is 0.43 % dose/g and 0.43 ± 0.05 % dose/g. Moreover, the “% total counted / % total recovered” value in [2] (120 min) came out at 79.41 ± 5.56%. For the same compound, the “% total counted / % total recovered” value in data set [2] (180 min) was determined as 79.46 ± 5.15%. Moreover, the “Brain penetration and clearance” value in [2] is “readily penetrates and is rapidly cleared from the brain”.

For the compound `O=C(O)c1cc(/N=N/c2ccc(-c3ccc(/N=N/c4ccc(O)c(C(=O)O)c4)cc3)cc2)ccc1O` [CG, chrysamine-G], the inhibitory constant (Ki) in data set [9] is 370 nM.

For `CC(=C(C#N)C#N)c1ccc2cc(N(C)CC[18F])ccc2c1` [FDDNP, 2-(1-{6-[(2-[^18F]fluoroethyl)(methyl)amino]-2-naphthyl}ethylidene)malononitrile], the Ki in data set [10] was 239 nM.

For the compound `CNc1ccc(/C=C/c2ccc(OCCOCCOCCF)c(I)c2)cc1` [Compound 1b-3, (E)-4-(4-(2-(2-(2-fluoroethoxy)ethoxy)ethoxy)-3-iodostyryl)-N-methylbenzenamine], in [1], the Ki came to 9 ± 1.8 nM. The figures for the “Biodistribution Brain (% dose/g in brain)” value in [2] (2 min) and in [2] (60 min) were 2.0 ± 0.4 % dose/g and 0.51 ± 0.09 % dose/g, respectively. In addition, the “Selectivity (binding to CNS/CV receptors)” value in data set [3] is “No high affinity binding to any CNS receptors”.
